Data: BigSolDB 2.1

O=P(CCCO)(CCCO)CCCO
Conditions	solubility (mole fraction)
in acetone, 293.15 K	0.0007
in acetone, 298.14 K	0.00101
in acetone, 303.16 K	0.00151
in acetone, 308.21 K	0.00217
in acetone, 313.17 K	0.00303
in acetone, 318.12 K	0.00425
in acetone, 323.15 K	0.00593
in ethanol, 298.12 K	0.0226
in ethanol, 303.22 K	0.0286
in ethanol, 308.17 K	0.036
in ethanol, 313.1 K	0.0456
in ethanol, 318.08 K	0.0569
in ethanol, 323.11 K	0.0718
in ethanol, 328.16 K	0.0919
in isobutanol, 293.11 K	0.0122
in isobutanol, 298.21 K	0.0154
in isobutanol, 303.13 K	0.019
in isobutanol, 308.15 K	0.0234
in isobutanol, 313.17 K	0.0291
in isobutanol, 318.14 K	0.0357
in isobutanol, 323.23 K	0.0436
in isopropanol, 298.13 K	0.0155
in isopropanol, 303.21 K	0.0187
in isopropanol, 308.15 K	0.0224
in isopropanol, 313.17 K	0.027
in isopropanol, 318.19 K	0.0321
in isopropanol, 323.11 K	0.0386
in isopropanol, 328.18 K	0.0465
in methanol, 298.11 K	0.0527
in methanol, 303.15 K	0.0702
in methanol, 308.18 K	0.091
in methanol, 313.1 K	0.115
in methanol, 318.22 K	0.144
in methanol, 323.14 K	0.176
in methanol, 328.11 K	0.21
in n-butanol, 298.13 K	0.011
in n-butanol, 303.21 K	0.0138
in n-butanol, 308.11 K	0.0163
in n-butanol, 313.17 K	0.02
in n-butanol, 318.15 K	0.0252
in n-butanol, 323.1 K	0.0302
in n-butanol, 328.23 K	0.0369
in n-propanol, 298.16 K	0.0369
in n-propanol, 303.11 K	0.0438
in n-propanol, 308.13 K	0.0517
in n-propanol, 313.12 K	0.062
in n-propanol, 318.16 K	0.0731
in n-propanol, 323.21 K	0.0866
in n-propanol, 328.18 K	0.102
